Results on one compound are retold here after patent US20080161398A1, “STIMULATION OF IN VIVO PRODUCTION OF PROTEINS” (Nutricia N.V., priority 2002, published 2008).

In the experiment the test system is mixed muscle protein synthesis. As to the kind of experiment: Fractional synthetic rate of mixed muscle protein synthesis in anaesthetized rats after intravenous infusion of amino acid compositions. The class given is in vivo. As for the experimental part:
Four groups of anaesthetized rats were given an amino acid composition. The same total amount of amino acids was given to each group by intravenous infusion. A fifth group was added to the study as a control group. The first group was given a balanced mixture of amino acids, commercially available under the trade name Travasol. This mixture contains less than 5% leucine. The second group was given 75% of Travasol and 25% of leucine. The third group was given 65% of Travasol and 35% of leucine, and the fourth group was given only leucine. The in fractional synthetic rate of mixed muscle protein synthesis (FSR (%/h)) was measured as described by Ferrando et al., Am. J. Physiol., 275:E864-E871, 1998, the contents of which are incorporated herein by reference.

As to `CC(C)C[C@H](N)C(=O)O` [Leucine alone, leucine], the “response in protein production” value (administration of L-leucine alone, as shown in the appended examples) is “does not induce the desired response in protein production”. In addition, the “FSR (%/h), fractional synthetic rate of mixed muscle protein synthesis” value (anaesthetized rats, intravenous infusion, same total amount of amino acids given to each group) is on record as 0.0767 ± 0.0204 %/h.
